What was measured:
[1] = system: encephalomyocarditis (EMC) virus; experiment: Prophylactic use against encephalomyocarditis (EMC) viral infection in mice; type: in vivo, mice (female albino); conditions: single intraperitoneal, 18-24 hours before EMC challenge, tenth day after challenge, average of 2 runs
Experimental: Prophylactic use of compounds (1-I), (2-I) and (3-I) against infection by encephalomyocardis viral infection in mice
Three groups of ten female albino micce (20-25 g. body weight) were given single 0.5 ml. intraperitoneal injections containing dosage levels of 1.5, 5, and 15 mg. of the appropriate compound/kg. body weight, respectively. A fourth control group was given no such injection. Eighteen to twenty-four hours later all four groups were challenged with a 0.2 ml. subcutaneous injection containing 20-30 times the LD50, the dosage level causing a 50% death rate in ten days, of encephalomyocarditis (EMC) virus. The following relative average survival rates were found from an average of 2 such runs for compounds 1-I, 2-I and 3-I.
Antiviral activity is expressed as the average relative survival (Sr) of 2 runs of experimental groups compared to the controls on the tenth day after challenge. Sr is defined by the formula [formula] wherein Sr=relative survival;
Sx =percent survival after ten days in experimental group;
Xi =number of survivors on the ith day in experimental group;
ei =number of survivors on the ith day in control group.

B-16 cells = experiment: Peritoneal Exudate Cell Mediated Cytotoxicity in Vitro (macrophages from drug-injected mice); type: cell-based; conditions: Mus musculus, B16, effector:target 15:1, 24 hours at 37°, read-out: % Cytotoxicity (percent release drug-treated minus vehicle treated); for cytotoxicity at 1 mg/kg: 1 mg/kg injected to mice; for cytotoxicity at 5 mg/kg: 5 mg/kg injected to mice; for cytotoxicity at 25 mg/kg: 25 mg/kg injected to mice
Experimental: Peritoneal Exudate Cell Mediated Cytotoxicity in Vitro
Peritoneal exudate cells (PEC) from normal mice injected with immune potentiators or drug vehicle were harvested by gentle lavage with 3 ml cold RPMI 1640 medium (Grand Island Biological Co., N.Y.) supplemented with 5 units of heparin per ml of medium. Macrophages were identified morphologically, counted, and adjusted to 7.5×10^5 cells per ml of tissue culture medium; 0.2 ml volumes were added to microtiter wells containing 10^4 B-16 cells with ^125 IUDR label (effector: target cell ratio=15:1). After 24 hours at 37° in 5% CO2, supernatants were decanted and the adherent cells washed 3 times with pre-warmed RPMI 1640; the supernatant and washings were pooled and retained for counting. The adherent cells were treated with 1% sodium dodecyl sulfate (SDS) at room temperature for 30 minutes. The SDS-treated cells were harvested and the cells washed 3 times with RPMI 1640; cells and washings were pooled for counting. Supernatants and cells were counted in a Searle 1185 gamma counter. Results were expressed as: [formula]
The table below gives the percent cytotoxicity for 1-I, 2-I and 3-I wherein Percent Cytotoxicity equals (Percent release from drug-treated) minus (Percent release from vehicle treated).

Sarcoma 180J = Sarcoma 180J Model for Assessment of Tumor Rejection; type: in vivo, CD-1 mice (female); conditions: for %ILS (percent life span): day 1 after 10^6 S-180J cells i.p., observed until death or 40 days, TWEEN 80/glycerol aqueous suspension; for numbers of 40 day survivors: six mice per group
Experimental: Sarcoma 180J Model for Assessment of Tumor Rejection
Six female CD-1 mice (20-25 g) per group received 10^6 S-180J cells (5-8 days old) intraperitoneally (i.p.) on day O. The animals then received formulated drug (0.1 ml) at the desired dose on day 1 following tumor cell injection. The animals were observed until death or 40 days, whichever occurred first. Results using compounds 1-I, 2-I, 3I and 4I are expressed as percent life span (% ILS).
^ a compounds were formulated in TWEEN 80/glycerol aqueous
^b Numbers in parenthesis are numbers of 40 day survivors.

SMILES	Average Relative Survival (Sr) ([1]; 1.5 mg/kg)	Average Relative Survival (Sr) ([1]; 5 mg/kg)	Average Relative Survival (Sr) ([1]; 15 mg/kg)	cytotoxicity at 1 mg/kg (B-16 cells) [%]	cytotoxicity at 5 mg/kg (B-16 cells) [%]	cytotoxicity at 25 mg/kg (B-16 cells) [%]	%ILS (percent life span) (Sarcoma 180J; 5 mg/kg) [%]	numbers of 40 day survivors (Sarcoma 180J; 5 mg/kg)	%ILS (percent life span) (Sarcoma 180J; 15 mg/kg) [%]	numbers of 40 day survivors (Sarcoma 180J; 15 mg/kg)	%ILS (percent life span) (Sarcoma 180J; 50 mg/kg) [%]	numbers of 40 day survivors (Sarcoma 180J; 50 mg/kg)
CCCCCCCCCCCCCCCCN(CCCCCCCCCCCCCCCC)Cc1cccc(C(O)CNCC)c1 (stereo not shown) [Compound 1-I, N-ethyl-2-[meta-N,N-di-n-hexadecylaminomethylphenyl]ethanolamine]	24.5	65.5	70	35.7	25.6	23.8	150	1	210	4	235	5
CCCCCCCCCCCCCCCCN(CCCCCCCCCCCCCCCC)Cc1cccc(C(O)CNC(C)C)c1 (stereo not shown) [Compound 3-I, N-isopropyl-2-[meta-N,N-di-n-hexadecylaminomethylphenyl]ethanolamine]	27	54	87.5	42.4	35.1	33.4	154	2	185	4	212	6
CCCCCCCCCCCCCCCCN(CCCCCCCCCCCCCCCC)Cc1cccc(C(O)CNC(C)(C)C)c1 (stereo not shown) [Compound 2-I, N-t-butyl-2-[meta-N,N-di-n-hexadecylamino-methylphenyl]ethanolamine]	42.5	62.5	65.5	31.2	33.6	27.2	154	1	134		160	2
CCCCCCCCCCCCCCCCN(CCCCCCCCCCCCCCCC)Cc1cccc(C(O)CN)c1 (stereo not shown) [Compound 4-I, 2-[meta-N,N-di-n-hexadecylaminomethylphenyl]ethanolamine]							125		181	4	212	6

From patent publication US4211794A, “N,N-Disubstituted aminomethylphenylethanolamines” (Pfizer Inc., priority 1979, dated 1980)
